A melting point compilation (Tetko et al.; mined from patent text by program, amines drawn as free bases though some values may be those of a salt)

melting point | SMILES
63 °C | COC(=O)c1nc(C(=O)c2ccc(N)c(OC)c2)n2ccccc12
217 to 218 °C | C1=Cn2cnnc2C(c2ccccc2)c2ccccc21 (centres undefined)
172 to 173 °C | COc1cc(C2(OC)CCOCC2)ccc1OCc1ccc2c(ccc(=O)n2C)c1
102 to 103 °C | COc1ccc(OCCCCBr)c(C2(SC)Sc3ccccc3N(C)C2=O)c1 (centres undefined)
131 to 133 °C | CC(C)(O)CCOc1c(-c2ccc(S(C)(=O)=O)cc2)cnn(-c2ccc(F)c(F)c2)c1=O
92 to 94 °C | Cn1nnnc1-c1cccc(Oc2cccc(C(F)(F)F)c2)n1
145 to 146 °C | COC=C(C(=O)OC)n1ccc2ccc(-c3csc(-c4ccc(C)cc4)n3)cc21
197 to 200 °C | COc1cccc(C(C)CC(=O)Nc2sc3c(c2C#N)CCNC3)c1 (racemic)
124 to 126 °C | CCN1CC(=O)N(c2c(C)cccc2Cl)C1=S
160 to 161 °C | CC1CN(C(=O)Cn2c(=O)n(C)c3nc(-c4ccccc4)ncc32)CC(C)O1 (centres undefined)
49 to 51 °C | O=C(c1ccccc1)c1ccncc1Cl
218 to 219 °C | CC(C)(C)NC(=O)C(C#N)=NO
267 °C | Cc1nc2c(C(F)(F)F)cccc2c(O)c1C(=O)Nc1nccs1
114 to 115 °C | O=S(=O)(Cl)c1cc(Cl)c(Cl)c(S(=O)(=O)Cl)c1
190 °C | COc1ccc2c3c1c(C)c(-c1ccc(O)cc1)n3CC(CCO)O2 (centres undefined)
43 to 46 °C | CCOC(=O)c1cn(C)nc1C(F)F
83 °C | COC(=O)N1CCN(C(=O)N2CCC(c3cccnc3)C2)c2ccccc21 (centres undefined)
118 to 120 °C | COc1cc2c(cc1Cl)CC(C)OC2c1ccc([N+](=O)[O-])cc1 (centres undefined)
126 to 128 °C | CC(C)(C)OC(=O)Nc1ccc2ccc(C#N)cc2c1

melting point | SMILES
297 to 299 °C | Cc1[nH]c2ccc(C3=NNC(=O)CC3)cc2c1-c1ccccc1
160 to 165 °C | CCOC(=O)c1cn(CCc2cccc(F)c2)c2cc(C3CC3)nn2c1=O
148 °C | Nc1cc(Cl)nc(SCc2cccc(O)c2)n1
94 to 97 °C | N#Cc1c(-c2ccc(Cl)cc2)[nH]c(C(F)(F)F)c1Sc1ccc(Cl)c(Cl)c1
266 to 267 °C | CC1(C)CCc2c(N3CCOCC3)nc3sc4c(NCc5cccc6ccccc56)ncnc4c3c2C1
71 to 73 °C | CCOC(=O)CN1Cc2ccccc2CC(N)C1=O (centres undefined)
78 °C | CC(C)(C)OC(=O)c1ccc(OCCNC(=O)C2Cc3ccccc3N2S(=O)(=O)c2ccc(-c3ccc(F)cc3Cl)cc2)cc1 (centres undefined)
175 to 176 °C | CC1(C)CN=C(c2cc3cc(F)cc(NS(=O)(=O)c4cccs4)c3[nH]2)S1
152 to 154 °C | CS(=O)(=O)c1ccc(/C=C/c2nc3ccccc3n2-c2ccccn2)cc1
128 to 129 °C | CCCc1cc(F)c(C(=O)O)c([N+](=O)[O-])c1O
112 to 114 °C | Cn1nc(-c2cc(CBr)c(Cl)cc2F)c(Cl)c1C(F)(F)F
163 to 165 °C | COc1ccc2c(c1)CC(N(C)CCCN1CCc3cc(OC)c(OC)cc3NC1=O)CC2 (centres undefined)
115 to 117 °C | CCc1ncc(CCCOc2ccc(-c3nnn(C)n3)cc2)n1C
119 to 123 °C | COC(=O)c1cccc([N+](=O)[O-])c1CS(N)(=O)=O
134 to 136 °C | COc1c(Cl)ccc(-c2nc(C(=O)Cl)cc(Cl)c2Cl)c1F
200 to 205 °C | Cc1ccc2c(c1)C=Cc1cc(C)ccc1C2c1cn(Cc2nc(C(=O)O)cs2)c(=O)[nH]c1=S
240 to 243 °C | O=c1c2ccccc2nc(-c2cc(-c3ccc(Cl)cc3)c(N3CCOCC3)s2)n1-c1ccc(Cl)cc1
78 to 79 °C | O=C(CC1CCCCC1=O)c1ccc(Cl)c(Cl)c1 (centres undefined)

SMILES | melting point
O=C1[C@H](O)CCN1CC#CCN1CCCC1 | 81 to 85 °C
Cc1cc(N2C(=O)N(CCCCCN3C(=O)N(c4ccc(C#N)c(C)c4)C(=O)C3(C)C)C(C)(C)C2=O)ccc1C#N | 148 to 149 °C
